Structures are written as SMILES. Entries after “also recorded” stand apart in the source; their conditions may differ.

Experiment [1] deals with T1, human MT1 receptor (Homo sapiens, UniProt P48039).
T1 construct: expressed in transfected cells
Kind of experiment: 2-[125I]iodomelatonin competition binding, human MT1 in CHO cells. The following applies: human MT1 stably expressed in CHO cells, calculated from IC50 by Cheng and Prusoff.

Experiment [2] concerns Wistar rats. Briefly: hot plate test. The experiment is classed as in vivo, rat. The following applies: for withdrawal temperature compared to untreated rats: summary statement, dose not stated. Here is the method: Animals: Wistar rats (150-250 g, Charles-River Saint-Constant, Quebec, Canada) were used for the formalin test, hot plate test and L5-L6 spinal nerves ligature model. The animals were housed at constant room temperature and humidity under a 12 h light/dark cycle (lights on at 7 AM). Food and water were available ad libitum. Hot plate test: The hot-plate test was performed by using an electronically controlled hot-plate (Ugo Basile, Italy). The initial temperature was 38° C. A near linear increase in temperature (3° C. per min) was obtained by turning the heating adjustment to maximum. The temperature at which the fast hindpaw lick occurred was recorded as the nociceptive end-point. If no hindpaw lick was observed, the test was terminated at 52° C., and this cut-off value was used in the analysis. The plate was wiped with a wet cloth, and a fan located behind the plate allowed rapid cooling so that testing could be conducted every 7.5 min. Statistical Analysis: Data analysis was done using SigmaPlot 12 (Systat Software, Inc.). Two-way ANOVA for repeated measures was used to analyze data from L5-L6 models using treatments (between) and testing time (within) as factors. One-way ANOVA was used to analyze AUC in the L5-L6 spinal nerves ligation model. One-way ANOVA was used for formalin and hot-plate tests. Post-hoc analyses were performed using Bonferroni t-test comparisons or Student-Newman-Keuls (SNK) test. All data are expressed as mean±Standard Error of the Mean (SEM). P<0.05 was considered significant.
(Hot-plate and tail-flick tests time the reaction to a heat stimulus.)

For experiment [3], the target named is T2, human-cloned MT1 (Homo sapiens, UniProt P48039).
T2 construct: expressed in transfected cells
T2 sequence (P48039 whole entry): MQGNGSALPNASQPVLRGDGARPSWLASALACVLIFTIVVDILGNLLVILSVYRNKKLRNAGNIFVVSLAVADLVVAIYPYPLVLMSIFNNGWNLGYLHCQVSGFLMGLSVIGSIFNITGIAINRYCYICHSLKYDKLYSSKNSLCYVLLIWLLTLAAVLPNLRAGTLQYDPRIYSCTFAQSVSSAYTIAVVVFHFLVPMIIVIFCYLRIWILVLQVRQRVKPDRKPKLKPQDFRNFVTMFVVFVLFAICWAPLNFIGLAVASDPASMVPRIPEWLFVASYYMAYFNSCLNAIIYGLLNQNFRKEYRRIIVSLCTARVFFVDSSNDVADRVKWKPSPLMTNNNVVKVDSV
Briefly: impedance assay in CHO cells expressing human-cloned MT1 (functional activity). For MT1 Activity: key: A = ago0nist; PA = partial agonist; ANT = antagonits. The experiment is classed as cell-based. Conditions: for activity for the MLT receptor subtype MT1 (in words): CHO cells.

Experiment [4] deals with Wistar rats. Kind of experiment: formalin test. In kind it is in vivo, rat. The following applies: for licking time vs vehicle, first phase / licking time vs vehicle, total time / licking time vs vehicle, second phase: 30 min prior to test; for licking time compared to untreated rats: summary statement, dose not stated. Here is the method:
Animals: Wistar rats (150-250 g, Charles-River Saint-Constant, Quebec, Canada) were used for the formalin test, hot plate test and L5-L6 spinal nerves ligature model. The animals were housed at constant room temperature and humidity under a 12 h light/dark cycle (lights on at 7 AM). Food and water were available ad libitum.
Formalin Test: Antinociception was assessed using the formalin test (Dubuisson and Dennis, 1977). Rats were placed in open Plexiglas observation chambers for 60 min to allow them to acclimatize to their surroundings; then they were removed for formalin administration. Rats were gently restrained while the dorsal surface of the right hindpaw was injected with […] of 1% formalin (37% formaldehyde solution further diluted in saline solution) with a 30-gauge needle. The animals were returned to the chambers and nociceptive behavior was observed immediately after formalin injection. Mirrors were placed in each chamber to enable unhindered observation. Licking/biting behavior directed to the formalin injected paw was scored in 5 min intervals considering number and duration of the licking. Cumulative behavior for the total duration of the test as well as the first (0-10 min) and second phase (20-50 min) was then analyzed (Sufka et al., 1998).The initial acute phase (0-10 min) was followed by a relatively short quiescent period, which was then followed by a prolonged tonic response (15-60 min). The first phase is considered to be the result of direct stimulation of nociceptors, whereas inflammation process contributes to phase 2 activity (Hunskaar and Hole, 1987). At the end of the experiment the rats were sacrificed in a CO2 chamber.
(§1) Statistical Analysis: Data analysis was done using SigmaPlot 12 (Systat Software, Inc.). Two-way ANOVA for repeated measures was used to analyze data from L5-L6 models using treatments (between) and testing time (within) as factors. One-way ANOVA was used to analyze AUC in the L5-L6 spinal nerves ligation model. One-way ANOVA was used for formalin and hot-plate tests. Post-hoc analyses were performed using Bonferroni t-test comparisons or Student-Newman-Keuls (SNK) test. All data are expressed as mean±Standard Error of the Mean (SEM). P<0.05 was considered significant.

Experiment [5] has as its target T3, human-cloned MT2 receptors (Homo sapiens, UniProt P49286).
T3 construct: expressed in transfected cells
T3 sequence (P49286 1-362): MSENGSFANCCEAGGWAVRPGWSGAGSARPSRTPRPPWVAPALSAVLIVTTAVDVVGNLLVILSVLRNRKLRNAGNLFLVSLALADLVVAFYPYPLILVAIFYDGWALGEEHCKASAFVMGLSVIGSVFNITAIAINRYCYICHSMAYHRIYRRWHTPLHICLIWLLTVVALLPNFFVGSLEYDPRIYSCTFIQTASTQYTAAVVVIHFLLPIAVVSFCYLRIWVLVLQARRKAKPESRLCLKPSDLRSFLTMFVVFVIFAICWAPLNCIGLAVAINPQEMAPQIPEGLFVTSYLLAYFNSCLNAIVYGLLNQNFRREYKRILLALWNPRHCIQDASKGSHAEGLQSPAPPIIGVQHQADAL
Kind of experiment: cAMP assay in CHO cells expressing human-cloned MT2 (functional activity). The experiment is classed as cell-based. The following applies: CHO cells.

In experiment [6] the test system is SNI rats. Kind of experiment: spared nerve injury (SNI) model, dynamic plantar aesthesiometer. In kind it is in vivo, rat. The following applies: for mechanical withdrawal threshold compared to untreated rats: summary statement, dose not stated. How it is done: Spared nerve injury (SNI) of the sciatic nerve and measurement of allodynia with the dynamic plantar aesthesiometer. SNI was performed according to the method of Decosterd and Woolf (2000). Rats were anaesthetized with sodium pentobarbital (50 mg/kg i.p.). The sciatic nerve was exposed at mid-thigh level […] to the trifurcation and freed of connective tissue; the three peripheral branches (sural, common peroneal, and tibial nerves) of the sciatic nerve were exposed without stretching nerve structures. Both tibial and common peroneal nerves were ligated and transected together. The sham procedure consisted of the same surgery without ligation and transection of the nerves. Fourteen days after SNI, mechanical allodynia was measured using the dynamic plantar aesthesiometer (Ugo Basile, Varese, Italy). Each rat was placed and allowed to move freely in one of the two compartments of the enclosure positioned on a metal grid surface. A mechanical stimulus was delivered to the plantar surface of the rat's hind paw through the metal grid by a steel filament (Von Frey-type), connected to a movable touch-stimulator unit exerting an increasing force of 3 g per second. The force inducing paw withdrawal was recorded to the nearest 0.1 g. Nociceptive responses for mechanical sensitivity (mechanical withdrawal threshold) were measured in grams before and after vehicle or drug administration by an experimenter blind to the treatments. A single trial at each time point was performed on the ipsilateral hind paw to SNI surgery for each rat. Nociceptive responses for mechanical sensitivity were expressed as mean±SEM (g). Groups of 6-7 rats per treatment were used, with each animal being used for one treatment only.
as §1

Where [7] appears, read: 20 mg/kg s.c., 30 min post treatment.
Where [8] appears, read: 20 mg/kg s.c., 1 hour post treatment.
[9] abbreviates: 20 mg/kg s.c., 4 hours post treatment.
[10] abbreviates: 40 mg/kg, 1 hour post treatment.
[11] abbreviates: 40 mg/kg, 4 hours post treatment.

T1 sequence (P48039 whole entry): as the sequence (P48039 whole entry) above

As for `COc1cccc(N(CCNC(C)=O)c2ccccc2)c1` [5b, N-{2-[(3-Methoxyphenyl)-phenylamino]ethyl}acetamide], the “MT1 pKi” value in experiment [1] is recorded as 8.38. For the same compound, the “withdrawal temperature vs vehicle” value in experiment [2] (setting [7]) is on record as “significant increase of the withdrawal temperature”; in experiment [2] (setting [8]) it was “increase of withdrawal temperature; also recorded: increased the withdrawal temperature”; in experiment [2] (setting [9]) it was “significant increase of withdrawal temperature; also recorded: increased the withdrawal temperature”; in experiment [2] (setting [10]), “increase of withdrawal temperature”; in experiment [2] (setting [11]) it was “significant increase of withdrawal temperature”. The “withdrawal temperature compared to untreated rats” value in experiment [2] is recorded as “significant increase in withdrawal temperature”. For the same compound, the “activity for the MLT receptor subtype MT1 (in words)” value in experiment [3] is recorded as “partial agonist activity”. Besides, the “licking time vs vehicle, first phase” value in experiment [4] (10 mg/kg) was “decrease in the licking time”; in experiment [4] (20 mg/kg s.c.) it was “decrease in the licking time; also recorded: decreased the licking time”; in experiment [4] (40 mg/kg), “decrease in the licking time; also recorded: decreased the licking time”. Moreover, the figures for the “licking time vs vehicle, total time” value in experiment [4] (10 mg/kg), in experiment [4] (20 mg/kg s.c.) and in experiment [4] (40 mg/kg) were “reduction of the licking time”, “reduction of the licking time; also recorded: decrease in the licking time; also recorded: decreased the licking time” and “reduction of the licking time; also recorded: decreased the licking time”, respectively. Besides, the “licking time vs vehicle, second phase” value in experiment [4] (20 mg/kg s.c.) was “decreased the licking time; also recorded: decrease of the licking time”; in experiment [4] (40 mg/kg) it was “decreased the licking time”. The “licking time compared to untreated rats” value in experiment [4] is “significantly decreased”. Besides, the “activity for the MLT receptor subtype MT2 (in words)” value in experiment [5] was “partial agonist activity”. Also, the “reduction of the mechanical allodynia” value in experiment [6] (20 mg/kg s.c.) and in experiment [6] (40 mg/kg s.c.) was “significant reduction of the mechanical allodynia” in each case. Besides, the “mechanical withdrawal threshold compared to untreated rats” value in experiment [6] was “significant decrease in mechanical withdrawal threshold”.
For the compound `CC(=O)NCCN(c1ccc(F)cc1)c1cccc(Br)c1` [5p, N-{2-[(3-Bromophenyl)-4-fluorophenylamino]ethyl}acetamide], in experiment [1] (read-out: MT1 pKi (converted)), the Ki was 178 nM. Further, the “withdrawal temperature vs vehicle” value in experiment [2] (setting [7]) is listed as “significant increase of the withdrawal temperature”; in experiment [2] (setting [8]), “increase of withdrawal temperature; also recorded: increased the withdrawal temperature”; in experiment [2] (setting [9]), “significant increase of withdrawal temperature; also recorded: increased the withdrawal temperature”; in experiment [2] (setting [10]), “increase of withdrawal temperature”; in experiment [2] (setting [11]) it was “significant increase of withdrawal temperature”. The “withdrawal temperature compared to untreated rats” value in experiment [2] is recorded as “significant increase in withdrawal temperature”. In addition, the “activity for the MLT receptor subtype MT1 (in words)” value in experiment [3] is “antagonist”. For the same compound, the “MT1 Activity” value in experiment [3] (intrinsic activity, human MT1 in CHO cells) is recorded as “ANT”. Besides, the “licking time vs vehicle, first phase” value in experiment [4] (10 mg/kg) was “decrease in the licking time”; in experiment [4] (20 mg/kg s.c.) it was “decrease in the licking time; also recorded: decreased the licking time”; in experiment [4] (40 mg/kg), “decrease in the licking time; also recorded: decreased the licking time”. Further, the entries for the “licking time vs vehicle, second phase” value in experiment [4] (10 mg/kg), in experiment [4] (20 mg/kg s.c.) and in experiment [4] (40 mg/kg) were “decreased the licking time”, “decreased the licking time; also recorded: decrease of the licking time” and “decreased the licking time”, respectively. Further, the “licking time vs vehicle, total time” value in experiment [4] (20 mg/kg s.c.) is recorded as “reduction of the licking time; also recorded: decrease in the licking time; also recorded: decreased the licking time”; in experiment [4] (40 mg/kg), “reduction of the licking time; also recorded: decreased the licking time”. In addition, in experiment [4], the “licking time compared to untreated rats” value is listed as “significantly decreased”. In addition, the “activity for the MLT receptor subtype MT2 (in words)” value in experiment [5] is “partial agonist activity”. Moreover, the “effect on mechanical allodynia compared with GBP 100 mg/kg, MLT 150 mg/kg and VEH” value in experiment [6] (20 mg/kg s.c.) is given as “greater than those produced by GBP”. The “reduction of the mechanical allodynia” value in experiment [6] (20 mg/kg s.c.) and in experiment [6] (40 mg/kg s.c.) was “significant reduction of the mechanical allodynia” in each case. For the same compound, the “extent of reversal of mechanical allodynia” value in experiment [6] (20 and 40 mg/Kg s.c.) was “reversed almost completely mechanical allodynia”. For the same compound, the “mechanical withdrawal threshold compared to untreated rats” value in experiment [6] is reported as “significant decrease in mechanical withdrawal threshold”.

(Values after patent publication US20160221932A1, “Methods and Uses of Melatonin Ligands” (priority 2013, published 2016).)
